In patent US10100064B2, “Purine inhibitors of human phosphatidylinositol 3-kinase delta” (Merck Sharp & Dohme Corp., priority 2014, dated 2018):

Experiments:
[1] = molecular target: T1, PI3Kdelta (Homo sapiens, UniProt O00329); assay: HTRF PI3K biochemical assay, delta isoform; details: 0.3 nM enzyme, 100 uM ATP, 5 uM PIP2, form screened (Neutral or TFA salt) given per compound
T1 construct: purchased Upstate; Millipore 14-604
How it was run: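 PI3Kδ at 0.3 nM with 100 uM ATP and 5 uM PIP2, 10-point 3-fold dilutions, 15 min enzyme–compound pre-incubation, then 1 h reaction at room temperature. PIP3 formation detected by HTRF displacement of biotin-PIP3 from GST-GRP1-PH (665/620 nm ratio). IC50 corrected using a PIP3 standard curve.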

[2] = molecular target: T2, PI3Kalpha (Homo sapiens, UniProt P42336); assay: HTRF PI3K biochemical assay, alpha isoform (selectivity versus delta); details: relative ratio PI3K-alpha IC50 value / PI3K-delta IC50 value
T2 construct: purchased Upstate; Millipore 14-602
T2 sequence (P42336 whole entry, canonical isoform): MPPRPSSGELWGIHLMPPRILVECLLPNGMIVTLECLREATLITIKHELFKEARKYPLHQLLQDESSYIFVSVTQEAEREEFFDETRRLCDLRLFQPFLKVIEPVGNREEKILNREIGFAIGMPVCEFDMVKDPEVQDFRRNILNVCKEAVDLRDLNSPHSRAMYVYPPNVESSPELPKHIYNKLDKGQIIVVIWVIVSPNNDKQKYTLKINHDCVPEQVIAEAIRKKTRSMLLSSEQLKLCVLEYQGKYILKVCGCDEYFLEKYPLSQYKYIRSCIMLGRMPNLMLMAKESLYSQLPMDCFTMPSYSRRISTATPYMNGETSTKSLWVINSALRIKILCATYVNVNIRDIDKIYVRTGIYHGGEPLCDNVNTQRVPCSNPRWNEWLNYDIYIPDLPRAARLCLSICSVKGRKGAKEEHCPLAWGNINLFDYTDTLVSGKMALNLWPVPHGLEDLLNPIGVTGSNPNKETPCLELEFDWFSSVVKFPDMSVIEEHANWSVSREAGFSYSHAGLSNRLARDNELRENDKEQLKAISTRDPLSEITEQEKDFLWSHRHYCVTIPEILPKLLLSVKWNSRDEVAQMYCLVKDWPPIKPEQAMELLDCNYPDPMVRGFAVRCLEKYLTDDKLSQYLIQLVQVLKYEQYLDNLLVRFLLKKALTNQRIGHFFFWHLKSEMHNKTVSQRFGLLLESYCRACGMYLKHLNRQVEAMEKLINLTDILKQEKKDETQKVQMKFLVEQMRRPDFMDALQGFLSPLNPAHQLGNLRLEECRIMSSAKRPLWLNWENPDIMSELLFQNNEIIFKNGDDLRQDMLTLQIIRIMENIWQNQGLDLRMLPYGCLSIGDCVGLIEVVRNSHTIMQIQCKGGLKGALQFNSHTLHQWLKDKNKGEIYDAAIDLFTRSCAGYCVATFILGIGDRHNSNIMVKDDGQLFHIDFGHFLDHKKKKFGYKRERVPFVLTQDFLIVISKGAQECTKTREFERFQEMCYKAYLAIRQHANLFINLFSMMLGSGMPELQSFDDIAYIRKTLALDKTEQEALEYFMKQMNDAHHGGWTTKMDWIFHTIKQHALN
T2 sequence (P27986 whole entry partner, canonical isoform): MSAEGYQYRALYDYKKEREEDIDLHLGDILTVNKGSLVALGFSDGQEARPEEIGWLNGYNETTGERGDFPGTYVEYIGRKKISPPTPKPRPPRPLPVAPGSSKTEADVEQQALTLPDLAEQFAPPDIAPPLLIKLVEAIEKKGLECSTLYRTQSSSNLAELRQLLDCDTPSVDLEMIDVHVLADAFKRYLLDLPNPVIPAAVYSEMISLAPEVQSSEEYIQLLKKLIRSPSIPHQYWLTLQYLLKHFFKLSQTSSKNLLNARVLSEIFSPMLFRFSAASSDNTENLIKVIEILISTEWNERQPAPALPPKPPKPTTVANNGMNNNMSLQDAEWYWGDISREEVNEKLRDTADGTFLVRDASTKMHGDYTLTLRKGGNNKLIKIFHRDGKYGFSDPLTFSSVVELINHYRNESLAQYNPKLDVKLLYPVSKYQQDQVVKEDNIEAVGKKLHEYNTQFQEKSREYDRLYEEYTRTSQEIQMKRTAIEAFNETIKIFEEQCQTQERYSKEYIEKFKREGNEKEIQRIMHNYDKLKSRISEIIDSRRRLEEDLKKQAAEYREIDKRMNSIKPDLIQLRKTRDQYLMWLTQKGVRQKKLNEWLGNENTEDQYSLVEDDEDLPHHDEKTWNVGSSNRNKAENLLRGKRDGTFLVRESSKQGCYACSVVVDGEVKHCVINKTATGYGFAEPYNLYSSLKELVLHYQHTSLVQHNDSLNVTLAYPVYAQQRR
How it was run: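 Recombinant PI3Kα (0.5 nM) pre-incubated 15 min with compound, then reacted 1 h at room temperature with 5 μM PIP2 and 100 μM ATP. After EDTA stop, PIP3 measured by HTRF displacement of biotin-PIP3 from GST-GRP1 PH domain (665/620 nm). 10-point dose response; IC50 corrected using a PIP3 standard curve.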

T1 sequence (O00329 whole entry, canonical isoform): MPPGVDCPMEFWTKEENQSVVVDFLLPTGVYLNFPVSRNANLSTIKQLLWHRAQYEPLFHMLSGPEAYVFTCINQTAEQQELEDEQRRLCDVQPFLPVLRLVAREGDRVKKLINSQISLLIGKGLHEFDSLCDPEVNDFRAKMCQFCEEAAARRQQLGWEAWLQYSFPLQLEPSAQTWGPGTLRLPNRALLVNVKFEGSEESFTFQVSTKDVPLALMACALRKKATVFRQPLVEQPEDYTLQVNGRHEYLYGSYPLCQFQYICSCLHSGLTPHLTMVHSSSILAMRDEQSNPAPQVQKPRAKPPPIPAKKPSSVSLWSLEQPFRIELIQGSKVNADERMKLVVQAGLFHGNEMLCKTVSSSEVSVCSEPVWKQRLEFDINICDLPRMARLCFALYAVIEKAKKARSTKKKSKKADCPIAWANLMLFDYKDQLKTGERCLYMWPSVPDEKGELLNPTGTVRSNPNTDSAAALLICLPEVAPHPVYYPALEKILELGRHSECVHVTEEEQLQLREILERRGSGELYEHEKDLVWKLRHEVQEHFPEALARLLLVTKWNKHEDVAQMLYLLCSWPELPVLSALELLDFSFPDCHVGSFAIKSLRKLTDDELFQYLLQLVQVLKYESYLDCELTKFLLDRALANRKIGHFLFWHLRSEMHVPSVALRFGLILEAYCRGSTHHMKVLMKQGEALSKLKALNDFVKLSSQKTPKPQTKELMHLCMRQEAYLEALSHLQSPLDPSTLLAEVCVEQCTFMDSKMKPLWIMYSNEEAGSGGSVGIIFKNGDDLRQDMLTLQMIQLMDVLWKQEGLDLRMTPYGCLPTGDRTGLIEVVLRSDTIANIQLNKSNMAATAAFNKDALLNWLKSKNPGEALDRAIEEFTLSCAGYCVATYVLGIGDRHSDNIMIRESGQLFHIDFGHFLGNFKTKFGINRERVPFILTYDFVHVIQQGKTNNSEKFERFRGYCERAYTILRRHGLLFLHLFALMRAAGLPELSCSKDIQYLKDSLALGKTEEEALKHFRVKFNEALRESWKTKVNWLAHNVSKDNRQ
T1 sequence (P27986 whole entry partner, canonical isoform): as the sequence (P27986 whole entry partner, canonical isoform) above

SMILES | IC50 [1] | Selectivity versus PI3Kalpha [2]
CCn1c(I)nc2c(NC3CCc4nnc(C5CC5)n4C3)ncnc21 (single isomer, unassigned) [Compound 1-27, (S or R)-N-[3-cyclopropyl-5,6,7,8-tetrahydro[1,2,4]triazolo[4,3-a]pyridin-6-yl]-9-ethyl-8-iodo-9H-purin-6-amine] | 151 nM | >10
CCn1c(-c2ccc(C(F)(F)F)cc2)nc2c(NC3CCc4nnc(C5CC5)n4C3)ncnc21 (single isomer, unassigned) [Compound 1-28, (S or R)-N-(3-cyclopropyl-5,6,7,8-tetrahydro[1,2,4]triazolo[4,3-a]pyridin-6-yl)-9-ethyl-8-[4-(trifluoromethyl)phenyl]-9H-purin-6-amine] | 1.4 nM | >10
CCn1c(-c2ccc(C(F)(F)F)cc2)nc2c(NC3CCc4nnc(C5CC5)n4C3)ncnc21 (single isomer, unassigned) [Compound 1-29, (S or R)-N-(3-cyclopropyl-5,6,7,8-tetrahydro[1,2,4]triazolo[4,3-a]pyridin-6-yl)-9-ethyl-8-[4-(trifluoromethyl)phenyl]-9H-purin-6-amine] | 49 nM | >10
CCn1c(-c2ccc(S(C)(=O)=O)nc2)nc2c(NC3CCc4nnc(C5CC5)n4C3)ncnc21 (single isomer, unassigned) [Compound 1-30, (S or R)-N-[(6S)-3-cyclopropyl-5,6,7,8-tetrahydro[1,2,4]triazolo[4,3-a]pyridin-6-yl]-9-ethyl-8-[6-(methylsulfonyl)pyridin-3-yl]-9H-purin-6-amine] | 8.3 nM | >10
CCn1c(-c2cnc(C)nc2)nc2c(OC3CCc4nnc(C5CC5)n4C3)ncnc21 (single isomer, unassigned) [Compound 1-31, (S or R)-6-{[3-cyclopropyl-5,6,7,8-tetrahydro[1,2,4]triazolo[4,3-a]pyridin-6-yl]oxy}-9-ethyl-8-(2-methylpyrimidin-5-yl)-9H-purine] | 220 nM | >10
CCn1c(-c2cnc(C)nc2)nc2c(OC3CCc4nnc(C5CC5)n4C3)ncnc21 (single isomer, unassigned) [Compound 1-32, (S or R)-6-{[3-cyclopropyl-5,6,7,8-tetrahydro[1,2,4]triazolo[4,3-a]pyridin-6-yl]oxy}-9-ethyl-8-(2-methylpyrimidin-5-yl)-9H-purine] | 4.4 nM | >10
CCn1c(-c2cnc(C)nc2)nc2c(OC3CCc4nnc(C(C)C)n4C3)ncnc21 (single isomer, unassigned) [Compound 1-33, (S or R)-9-ethyl-6-{[3-(1-methylethyl)-5,6,7,8-tetrahydro[1,2,4]triazolo[4,3-a]pyridin-6-yl]oxy}-8-(2-methylpyrimidin-5-yl)-9H-purine] | 35 nM | >10
CCn1c(-c2cnc(C)nc2)nc2c(OC3CCc4nnc(C(C)C)n4C3)ncnc21 (single isomer, unassigned) [Compound 1-34, (S or R)-9-ethyl-6-{[3-(1-methylethyl)-5,6,7,8-tetrahydro[1,2,4]triazolo[4,3-a]pyridin-6-yl]oxy}-8-(2-methylpyrimidin-5-yl)-9H-purine] | 4.1 nM | >10
CCn1c(-c2cnc(C)nc2)nc2c(OC3CCc4nnc(C5CCC5)n4C3)ncnc21 (single isomer, unassigned) [Compound 1-35, (S or R)-6-{[3-cyclobutyl-5,6,7,8-tetrahydro[1,2,4]triazolo[4,3-a]pyridin-6-yl]oxy}-9-ethyl-8-(2-methylpyrimidin-5-yl)-9H-purine] | 19 nM | >10
CCn1c(-c2cnc(C)nc2)nc2c(OC3CCc4nnc(C5CCC5)n4C3)ncnc21 (single isomer, unassigned) [Compound 1-36, (S or R)-6-{[3-cyclobutyl-5,6,7,8-tetrahydro[1,2,4]triazolo[4,3-a]pyridin-6-yl]oxy}-9-ethyl-8-(2-methylpyrimidin-5-yl)-9H-purine] | 1.1 nM | >10
CCn1c(-c2cnc(C)nc2)nc2c(NC3CCc4[nH]nc(C5CC5)c4C3)ncnc21 (single isomer, unassigned) [Compound 2-2, (S or R)-N-[3-cyclopropyl-4,5,6,7-tetrahydro-1H-indazol-5-yl]-9-ethyl-8-(2-methylpyrimidin-5-yl)-9H-purin-6-amine] | 2.9 nM | >10
CCn1c(-c2cnc(C)nc2)nc2c(NC3CCc4[nH]nc(C(C)C)c4C3)ncnc21 (single isomer, unassigned) [Compound 2-4, (S or R)-9-ethyl-N-[3-(1-methylethyl)-4,5,6,7-tetrahydro-1H-indazol-5-yl]-8-(2-methylpyrimidin-5-yl)-9H-purin-6-amine] | 1.8 nM | >10
CCn1c(-c2cnc(C)nc2)nc2c(NC3(C)CCc4[nH]nc(C(C)C)c4C3)ncnc21 (single isomer, unassigned) [Compound 2-5, (S or R)-9-ethyl-N-[5-methyl-3-(1-methylethyl)-4,5,6,7-tetrahydro-1H-indazol-5-yl]-8-(2-methylpyrimidin-5-yl)-9H-purin-6-amine] | 4.1 nM | >10
CCn1c(-c2cnc(C)nc2)nc2c(NC3(C)CCc4[nH]nc(C(C)C)c4C3)ncnc21 (single isomer, unassigned) [Compound 2-6, (S or R)-9-ethyl-N-[5-methyl-3-(1-methylethyl)-4,5,6,7-tetrahydro-1H-indazol-5-yl]-8-(2-methylpyrimidin-5-yl)-9H-purin-6-amine] | 21 nM | >10
CCn1c(-c2ccc(C(F)(F)F)cc2)nc2c(NC3CCc4[nH]nc(C(C)C)c4C3)ncnc21 (single isomer, unassigned) [Compound 2-7, (S or R)-9-ethyl-N-[3-(1-methylethyl)-4,5,6,7-tetrahydro-1H-indazol-5-yl]-8-[4-(trifluoromethyl)phenyl]-9H-purin-6-amine] | 1.7 nM | >10
CCn1c(-c2ccc(C(F)(F)F)cc2)nc2c(NC3CCc4[nH]nc(C(C)C)c4C3)ncnc21 (single isomer, unassigned) [Compound 2-8, (S or R)-9-ethyl-N-[3-(1-methylethyl)-4,5,6,7-tetrahydro-1H-indazol-5-yl]-8-[4-(trifluoromethyl)phenyl]-9H-purin-6-amine] | 210 nM | >10
CCCn1nc(C(C)C)c2c1CCC(Nc1ncnc3c1nc(-c1cnc(C)nc1)n3CC)C2 (single isomer, unassigned) [Compound 2-10, (S or R)-9-ethyl-N-[3-(1-methylethyl)-1-propyl-4,5,6,7-tetrahydro-1H-indazol-5-yl]-8-(2-methylpyrimidin-5-yl)-9H-purin-6-amine] | 6.1 nM | >10
CCn1c(-c2cnc(C)nc2)nc2c(NC3CCc4c(c(C(C)C)nn4CCO)C3)ncnc21 (single isomer, unassigned) [Compound 2-11, (S or R)-2-[5-{[9-ethyl-8-(2-methylpyrimidin-5-yl)-9H-purin-6-yl]amino}-3-(1-methylethyl)-4,5,6,7-tetrahydro-1H-indazol-1-yl]ethanol] | 2.1 nM | >10
